The record followed here is US7199161B2, “Substituted bicylo[3.3.1]nonan-2,4,9-triones as pharmaceutical active ingredients” (Diagenics International Corporation, priority 2002, dated 2007).

The target in data set [1] is T1, topoisomerase I (Homo sapiens, UniProt P11387).
T1 construct: 160 ng of cell nucleus extract with the topoisomerase I present therein; endogenous in cells; host or cells: tumor cell lines (cell nucleus extract)
T1 sequence (P11387 1-765): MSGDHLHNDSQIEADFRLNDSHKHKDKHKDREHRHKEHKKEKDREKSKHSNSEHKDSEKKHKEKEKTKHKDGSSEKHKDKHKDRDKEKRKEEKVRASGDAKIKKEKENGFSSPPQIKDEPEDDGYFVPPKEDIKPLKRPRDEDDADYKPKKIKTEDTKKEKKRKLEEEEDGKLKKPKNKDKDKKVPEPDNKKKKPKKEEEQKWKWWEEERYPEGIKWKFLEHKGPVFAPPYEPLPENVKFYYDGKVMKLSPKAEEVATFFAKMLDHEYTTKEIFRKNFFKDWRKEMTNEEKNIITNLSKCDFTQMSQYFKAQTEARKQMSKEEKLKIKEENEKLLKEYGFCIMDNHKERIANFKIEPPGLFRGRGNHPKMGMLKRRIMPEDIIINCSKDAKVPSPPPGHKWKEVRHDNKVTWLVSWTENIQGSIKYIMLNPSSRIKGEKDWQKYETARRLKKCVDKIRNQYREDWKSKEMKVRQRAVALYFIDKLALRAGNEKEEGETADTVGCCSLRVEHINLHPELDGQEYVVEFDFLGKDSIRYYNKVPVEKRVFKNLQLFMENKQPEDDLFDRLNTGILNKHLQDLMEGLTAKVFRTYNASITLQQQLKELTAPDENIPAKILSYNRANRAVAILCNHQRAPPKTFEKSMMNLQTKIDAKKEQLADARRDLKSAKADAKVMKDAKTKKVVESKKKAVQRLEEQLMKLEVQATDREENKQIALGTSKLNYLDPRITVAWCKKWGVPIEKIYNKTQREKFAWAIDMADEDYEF
Nature of the data set: Topo I unwinding assay (pBR322 plasmid DNA, cell nucleus extract). Format: biochemical. Particulars: for concentration for in vitro topoisomerase I inhibition as multiple of the IC50 of tumor growth: multiple of the concentration inhibiting tumor cell growth by 50%. The text has this: The effect of the substance (Ic′) on topoisomerase I is investigated by carrying out the so-called Topo I unwinding assay. The assay is based on an ATP-independent unwinding of twisted pBR322 plasmid DNA dimers by topoisomerase I. The two different topological forms of the plasmid DNA, the twisted form and unwound, relaxed form, are separated in this investigation by means of an agarose gel. The enzyme topoisomerase I is obtained for this purpose from cell nucleus extracts of the tumor cell lines.
Cell nucleus extracts are obtained by the method of Sullivan with the modifications of Danks et al.

The subject of data set [2] is M51 WT cells (carcinoma of stomach). Nature of the data set: SRB assay, M51 WT. To be noted: mean ± SD of at least three experiments. Format: cell-based, human. A general note: In SRB staining, fixed cells bind dye roughly in proportion to their protein.
Protocol: (§5) Six unambiguously characterized tumor cell lines of human origin (native cell lines and those converted into resistant subclones) and two non-tumor cell lines are used for further investigations (table 2).
(§6) The sensitivity of the cell lines to the substance (Ic′) is determined in a so-called sulforhodamine B (SRB) assay.
(§7) The concentration of substance (Ic′) which inhibits cell growth by 50% (IC50, determined from semilogarithmic dose versus effect plots) are indicated.
Data set [3] concerns M51 DDP cells (cisplatin resistant). The data set is described as follows: SRB assay, M51 DDP. The class given is cell-based, human.
Protocol: as §6, §7
The subject of data set [4] is HT29 WT cells (adenocarcinoma of colon). The data set is described as follows: SRB assay, HT29 WT. The class given is cell-based, human.
Protocol: as §6, §7
Data set [5] relates to HT29 24R cells (5-FU resistant). Nature of the data set: SRB assay, HT29 24R. Format: cell-based, human.
Protocol: as §6, §7
Data set [6] deals with HT29 SN38 cells (SN38 resistant). Nature of the data set: SRB assay, HT29 SN38. Format: cell-based, human.
Protocol: as §6, §7
The subject of data set [7] is HCT8 WT cells (carcinoma of colon). Nature of the data set: SRB assay, HCT8 WT. The class given is cell-based, human. An excerpt:
The target cell used is, inter alia, a bowel cancer cell line of human origin (HCT8 WT).

The subject of data set [8] is HCT8 SN38 cells (SN38 resistant). Nature of the data set: SRB assay, HCT8 SN38. Format: cell-based, human.
Protocol: as §6, §7
Data set [9] concerns HCT8 ICID cells (raltitrexed resistant). The data set is described as follows: SRB assay, HCT8 ICID. Format: cell-based, human.
Protocol: as §6, §7
The subject of data set [10] is MCF-7 WT cells (adenocarcinoma of breast). Nature of the data set: SRB assay, MCF-7 WT. The class given is cell-based, human.
Protocol: as §6, §7
Data set [11] concerns MCF-7 AD cells (doxorubicin resistant gp 170+). The data set is described as follows: SRB assay, MCF-7 AD. The class given is cell-based, human.
Protocol: as §5, §6, §7
Data set [12] has as its system MCF-7 24R cells (5-FU resistant). The data set is described as follows: SRB assay, MCF-7 24R. Format: cell-based, human.
Protocol: as §5, §6, §7
Data set [13] has as its system A2780 WT cells (adenocarcinoma of ovary). Nature of the data set: SRB assay, A2780 WT. Format: cell-based, human.
Protocol: as §5, §6, §7
Data set [14] has as its system A2780 DX5 cells (doxorubicin resistant gp 170+). The data set is described as follows: SRB assay, A2780 DX5. Format: cell-based, human. To be noted: A2780 DX5, doxorubicin resistant gp 170+.
Protocol: as §5, §6, §7
Data set [15] relates to A2780 CP2 cells (cisplatin resistant). The data set is described as follows: SRB assay, A2780 CP2. The class given is cell-based, human.
Protocol: as §5, §6, §7
Data set [16] has as its system H460 WT cells (large-cell lung carcinoma). Nature of the data set: SRB assay, H460 WT. The class given is cell-based, human.
Protocol: as §5, §6, §7
In data set [17] the test system is 3T3 mouse fibroblasts. Nature of the data set: SRB assay, 3T3. Format: cell-based. To be noted: 3T3 mouse fibroblasts (non-tumor).
Protocol: as §5, §6, §7
In data set [18] the test system is MCR-5 diploid embryonic lung fibroblasts. Nature of the data set: SRB assay, MCR-5. Format: cell-based. Particulars: MCR-5 fibroblasts (non-tumor).
Protocol: as §5, §6, §7
In data set [19] the test system is HCT8 WT bowel cancer cells. The data set is described as follows: Cell cycle analysis by flow cytometry (BrdU/PI). Format: cell-based, human. Particulars: IC50 concentration, 24 hours. As for the experimental part: Flow cytometric investigations by an adapted method of Tsugita M. et al. are used for the analysis.
Exponentially growing HCT8 WT bowel cancer cells are treated with substance (Ic′) with the determined IC50 concentration for 24 hours, and then the cells are incubated with BrdU. The cells fixed with methanol are subjected to a treatment with a detergent (Triton X-100/HCl) in order to denature the DNA strands. After incubation with the fluorescence-labeled antibody (anti-BrdU mAb, FITC-labeled), the second fluorescent dye (PI, propidium iodide) is added.
The DNA content (propidium iodide fluorescence) and the amount of BrdU taken up (FITC fluorescence) are determined using a Coulter flow cytometer (Coulter EPICS XL). Exemplary results are depicted in FIG. 3a and 3b.
FIG. 3a and 3b show BrdU and PI uptakes into the DNA of HCT8 WT cells, untreated (control, […]) and treated with substance (Ic′) (IC50, 24 hours, FIG. 4b). The depicted results are representative of n=3 independent experiments.
(Flow cytometry measures light scatter and fluorescence of single cells or particles in a stream.)

Data set [20] relates to H460 WT bronchial carcinoma cells. The data set is described as follows: DNA double-strand breaks in [14C]d-thymidine-labeled cells, H460 WT. The class given is cell-based, human. Particulars: up to 10 times the IC50 concentration, 6 hours. How it is done: (§1) DNA isolated after treatment of the cells for various times with substance (Ic′) is for this purpose analyzed by gel electrophoresis.
(§2) Determination of the DNA double-strand breaks is performed on ^14C-labeled DNA. For this purpose, [^14C]d-thymidine-labeled cells are treated with various concentrations of substance (Ic′). The DNA is isolated by an adapted method of Chia Chiao et al.
(§3) The DNA fractionated by gel electrophoresis is subsequently stained with ethidium bromide.
(§4) On a transilluminator (302 nm), the intact DNA which has not migrated in the electric field is separated from the fragmented DNA, which has thus migrated into the gel, by extraction. The isolated gel and DNA fragments are liquefied at +80° C. in the presence of hydrochloric acid. After addition of a scintillator it is possible to determine the radioactivity using a liquid scintillation meter (TPI-CARB 2100RT). The measured radioactivity is indicated in […] (cpm).
The results represent averages and their standard deviation from n=3 independent experiments.

Data set [21] concerns HT29 WT colorectal carcinoma cells. Nature of the data set: DNA double-strand breaks, HT29 WT. Format: cell-based, human. How it is done:
as §1, §2, §3, §4

Data set [22] deals with T2, human telomerase (Homo sapiens, UniProt O14746).
T2 construct: human telomerase obtained from cells of a colon carcinoma (HCT8 WT); endogenous in cells; host or cells: HCT8 WT colon carcinoma cells
T2 sequence (O14746 whole entry): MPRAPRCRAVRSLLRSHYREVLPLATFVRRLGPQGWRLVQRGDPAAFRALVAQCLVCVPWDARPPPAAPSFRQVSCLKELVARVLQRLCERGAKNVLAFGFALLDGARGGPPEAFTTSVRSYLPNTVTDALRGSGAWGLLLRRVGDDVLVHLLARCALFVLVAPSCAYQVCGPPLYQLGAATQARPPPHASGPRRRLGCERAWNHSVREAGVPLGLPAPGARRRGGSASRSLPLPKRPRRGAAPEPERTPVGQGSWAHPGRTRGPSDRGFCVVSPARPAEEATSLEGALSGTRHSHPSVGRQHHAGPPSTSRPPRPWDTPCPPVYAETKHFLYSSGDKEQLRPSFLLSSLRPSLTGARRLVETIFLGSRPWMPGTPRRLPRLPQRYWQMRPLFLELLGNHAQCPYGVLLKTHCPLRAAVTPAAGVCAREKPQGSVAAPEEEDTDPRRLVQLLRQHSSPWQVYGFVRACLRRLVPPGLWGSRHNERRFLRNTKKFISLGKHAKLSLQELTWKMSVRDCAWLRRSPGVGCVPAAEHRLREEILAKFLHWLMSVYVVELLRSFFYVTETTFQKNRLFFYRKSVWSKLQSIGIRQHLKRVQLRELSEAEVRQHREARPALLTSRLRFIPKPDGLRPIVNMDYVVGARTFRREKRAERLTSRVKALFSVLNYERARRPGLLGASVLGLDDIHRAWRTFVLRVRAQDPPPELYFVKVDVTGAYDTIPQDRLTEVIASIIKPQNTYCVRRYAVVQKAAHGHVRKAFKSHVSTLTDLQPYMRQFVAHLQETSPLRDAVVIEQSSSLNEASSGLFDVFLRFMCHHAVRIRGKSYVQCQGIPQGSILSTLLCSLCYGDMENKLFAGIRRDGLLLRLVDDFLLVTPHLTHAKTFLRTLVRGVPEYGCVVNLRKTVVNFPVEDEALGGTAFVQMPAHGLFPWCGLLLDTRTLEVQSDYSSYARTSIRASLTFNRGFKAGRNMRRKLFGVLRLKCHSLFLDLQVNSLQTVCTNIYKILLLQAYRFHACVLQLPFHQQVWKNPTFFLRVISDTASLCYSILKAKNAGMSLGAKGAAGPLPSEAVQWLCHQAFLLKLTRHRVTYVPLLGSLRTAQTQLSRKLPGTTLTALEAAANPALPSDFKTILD
T2 sequence (O60832 whole entry partner): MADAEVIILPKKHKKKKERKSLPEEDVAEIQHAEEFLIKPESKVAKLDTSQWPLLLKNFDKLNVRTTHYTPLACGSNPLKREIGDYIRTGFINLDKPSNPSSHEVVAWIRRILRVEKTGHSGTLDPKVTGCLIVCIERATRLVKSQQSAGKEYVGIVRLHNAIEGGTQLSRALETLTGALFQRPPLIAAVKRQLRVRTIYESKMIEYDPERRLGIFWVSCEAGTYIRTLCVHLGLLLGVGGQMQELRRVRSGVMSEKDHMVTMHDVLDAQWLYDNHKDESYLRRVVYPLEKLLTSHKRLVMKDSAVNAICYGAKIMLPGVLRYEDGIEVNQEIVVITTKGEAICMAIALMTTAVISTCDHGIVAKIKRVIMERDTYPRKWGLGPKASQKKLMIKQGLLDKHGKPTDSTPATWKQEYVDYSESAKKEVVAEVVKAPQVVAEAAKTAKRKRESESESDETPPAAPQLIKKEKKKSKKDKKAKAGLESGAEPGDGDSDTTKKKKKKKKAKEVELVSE
T2 sequence (Q9NX24 whole entry partner): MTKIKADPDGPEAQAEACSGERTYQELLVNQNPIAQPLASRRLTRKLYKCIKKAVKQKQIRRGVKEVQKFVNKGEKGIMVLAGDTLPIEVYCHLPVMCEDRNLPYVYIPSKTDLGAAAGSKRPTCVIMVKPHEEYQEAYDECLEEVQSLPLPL
T2 sequence (Q9NPE3 whole entry partner): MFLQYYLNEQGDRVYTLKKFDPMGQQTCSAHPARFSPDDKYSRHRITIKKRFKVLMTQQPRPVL
T2 sequence (Q9NY12 whole entry partner): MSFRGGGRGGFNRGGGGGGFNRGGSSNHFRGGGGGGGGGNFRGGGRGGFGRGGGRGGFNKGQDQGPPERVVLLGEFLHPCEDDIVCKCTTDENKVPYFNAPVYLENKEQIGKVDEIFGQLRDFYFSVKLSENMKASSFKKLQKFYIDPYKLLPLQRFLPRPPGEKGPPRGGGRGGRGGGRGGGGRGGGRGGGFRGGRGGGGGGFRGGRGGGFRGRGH
T2 sequence (Q9BUR4 whole entry partner): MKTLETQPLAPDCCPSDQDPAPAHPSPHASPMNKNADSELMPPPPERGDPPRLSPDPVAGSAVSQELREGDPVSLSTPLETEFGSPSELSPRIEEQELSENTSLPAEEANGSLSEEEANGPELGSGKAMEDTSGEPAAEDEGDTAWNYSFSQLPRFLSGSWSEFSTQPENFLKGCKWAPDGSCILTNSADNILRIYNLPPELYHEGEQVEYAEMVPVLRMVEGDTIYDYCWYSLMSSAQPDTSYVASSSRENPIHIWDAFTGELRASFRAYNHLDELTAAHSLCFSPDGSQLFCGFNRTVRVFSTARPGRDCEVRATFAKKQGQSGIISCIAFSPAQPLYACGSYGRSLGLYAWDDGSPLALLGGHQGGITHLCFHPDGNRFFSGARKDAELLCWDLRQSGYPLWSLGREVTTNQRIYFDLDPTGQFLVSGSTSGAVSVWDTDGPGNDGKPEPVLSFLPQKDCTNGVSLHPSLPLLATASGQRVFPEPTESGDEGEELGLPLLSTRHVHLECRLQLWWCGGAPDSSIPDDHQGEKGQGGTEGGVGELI
Nature of the data set: Telomeric Repeat Amplification Assay (TRAP) ELISA. The class given is biochemical. Particulars: at 50 μg/ml; telomerase from HCT8 WT cells; range 10 to 50 μg/ml tested. How it is done:
The effect of substance (Ic′) on human telomerase is determined by carrying out the so-called Telomeric Repeat Amplification Assay (TRAP) ELISA, based on the method of N. W. Kim et al.
This method is based on use of the polymerase chain reaction (PCR). This entails, in a first step, a number of (GGTTAG) motifs being attached by means of the telomerase activity to the 3′ end of a biotin-labeled oligonucleotide (TS=telomerase substrate). In a second step, the products extended in this way are amplified by the PCR technique using TS and RP (R=reverse) primers. In this way, a “ladder” of products in increments of 6 bases (initial size=50 nucleotides) is generated. During the amplification, DNP-labeled dCTP is incorporated into the PCR products. Detection and quantification of the synthesized telomerase products using a sandwich ELISA method are a measure of the telomerase enzymatic activity.
The telomerase products carry the biotin-labeled TS primers and bind to the surface of microtiter plates previously coated with streptavidin. An anti-DIG antibody conjugated to POD binds to the […] nucleotides incorporated during the amplification. After addition of the substrate TMB, the telomerase activity is visualized by […] via the onset of the color reaction by the enzyme POD. In this case, the measured absorption is directly proportional to the telomerase activity. […]
On the technique in general: An ELISA detects its analyte on a solid surface through an enzyme-linked reagent.

In data set [23] the target is Taq polymerase (Thermus aquaticus, UniProt P19821). Nature of the data set: TSR8 template control experiment (DNA polymerase). Format: biochemical. To be noted: maximum concentration 50 μg/ml. How it is done: In order to ensure the effect of substance (Ic′) on telomerase, an effect of substance (Ic′) on DNA polymerase must be ruled out. In a preliminary experiment with TSR8 as internal control, the effect of substance (Ic′) at various concentration levels was ruled out.
Taq polymerase, sequence (P19821 whole entry): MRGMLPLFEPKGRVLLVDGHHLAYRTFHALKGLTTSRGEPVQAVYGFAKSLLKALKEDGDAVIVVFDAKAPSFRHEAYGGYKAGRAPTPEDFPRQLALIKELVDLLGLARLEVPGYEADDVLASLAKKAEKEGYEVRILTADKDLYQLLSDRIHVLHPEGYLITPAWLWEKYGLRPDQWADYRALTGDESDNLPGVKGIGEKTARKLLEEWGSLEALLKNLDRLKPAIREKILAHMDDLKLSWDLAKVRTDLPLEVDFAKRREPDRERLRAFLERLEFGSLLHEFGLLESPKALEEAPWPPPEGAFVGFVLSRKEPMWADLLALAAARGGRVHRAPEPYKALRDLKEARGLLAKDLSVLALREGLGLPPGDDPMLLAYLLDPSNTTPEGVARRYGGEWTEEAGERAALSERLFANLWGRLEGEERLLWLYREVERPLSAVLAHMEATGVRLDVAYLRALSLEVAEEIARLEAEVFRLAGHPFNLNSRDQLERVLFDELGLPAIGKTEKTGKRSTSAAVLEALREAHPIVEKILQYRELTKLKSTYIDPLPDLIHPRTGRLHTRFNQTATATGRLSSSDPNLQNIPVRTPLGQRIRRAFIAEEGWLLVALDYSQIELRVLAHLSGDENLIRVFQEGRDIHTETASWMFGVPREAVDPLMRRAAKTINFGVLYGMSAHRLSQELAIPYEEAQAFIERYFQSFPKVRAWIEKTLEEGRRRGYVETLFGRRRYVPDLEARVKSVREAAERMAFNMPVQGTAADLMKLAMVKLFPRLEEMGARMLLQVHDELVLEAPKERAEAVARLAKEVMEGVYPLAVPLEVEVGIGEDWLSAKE
Amplification of the TSR8 template depends only on DNA polymerase. Every inhibitor of this enzyme can be detected using the substrate.
The experiment is carried out in triplicates.

Data set [24] relates to ERK1/2 protein (MAP kinase). Nature of the data set: Western blot analysis of ERK1/2 phosphorylation. The class given is cell-based, human. To be noted: HCT8 WT, detectable even at a dose corresponding to the IC50. The text has this:
Phosphorylation of certain signal transduction pathways plays an essential role in the regulation of cell growth and gene expression. The protein ERK1/2 (MAP kinase) belongs to the MAP kinase signal transduction pathway.
Treatment of human colon carcinoma cells (HCT8 WT) with substance (Ic′) leads to phosphorylation of this protein, which is detected in a Western blot analysis (FIG. 8).

Data set [25] relates to HCT8 WT colon carcinoma cells.
Protocol: In this case, tumor cells, e.g. colon carcinoma cells (HCT8 WT), are coincubated with both active ingredients in different dosages in each case for 24 hours (FIG. 9). FIG. 9 represents the coincubation experiment on the cytotoxicity with substance (Ic′) and a specific ERK1/2 inhibitor (MAP kinase inhibitor). HCT8 WT cells were coincubated. The points shown indicate the corresponding ratios (% of the respective IC50 concentration) of the two active ingredients to one another.
Data set [26] concerns tumor cell lines (native and resistant subclones) and non-tumor cell lines.
Protocol: as §5, §6, §7

Take `CC[C@@]1(O)C(=O)OCc2c1cc1n(c2=O)Cc2cc3c(CN(C)C)c(O)ccc3nc2-1` [topotecan, reference compound]: the “concentration for in vitro topoisomerase I inhibition as multiple of the IC50 of tumor growth” value in [1] is 1000 times.
In the case of “1-Benzoyl-8,8-dimethyl-2-hydroxy-3,5,7-tris-(3-methyl-2-butenyl)bicyclo[3.3.1]non-2-ene-4,9-dione [Substance (Ic′)]”, the IC50 (in general, the concentration at which inhibition is half-maximal) is 5.70 ± 0.21 µg/mL in data set [2]; 4.77 ± 0.13 µg/mL in data set [3]; 5.25 ± 0.43 µg/mL in [4]; 5.18 ± 0.76 µg/mL in [5]; 3.50 ± 1.40 µg/mL in data set [6]; 4.23 ± 0.19 µg/mL in data set [7]. Moreover, the 50% inhibitory concentration (IC50) in data set [8] came out at 4.07 ± 0.08 µg/mL; in [9], 4.44 ± 0.13 µg/mL; in data set [10], 4.37 ± 0.12 µg/mL; in data set [11] it was 4.28 ± 0.08 µg/mL; in data set [12], 3.30 ± 0.51 µg/mL; in data set [13], 9.20 ± 0.82 µg/mL. For the same molecule, the half-maximal inhibitory concentration (IC50) in data set [14] was 6.75 ± 1.55 µg/mL; in [15] it was 6.23 ± 0.12 µg/mL; in data set [16] it was 4.21 ± 0.91 µg/mL; in [17], over 80.0 µg/mL; in data set [18] it was 21.73 ± 6.47 µg/mL. The “inhibition of topoisomerase I activity” value in data set [1] (at 100 μg/ml, 160 ng cell nucleus extract) was 100%. Moreover, the “concentration for in vitro topoisomerase I inhibition as multiple of the IC50 of tumor growth” value in [1] came out at 20 times. Moreover, in data set [19], the “effect on the cell cycle (BrdU uptake)” value was “inhibition of the synthesis phase”. For the same molecule, the “induction of DNA double-strand breaks” value in data set [20] is recorded as “induces significant amounts of double-strand breaks”; in data set [21], “induction of substantial amounts of double-strand breaks”. Also, the “inhibition of human telomerase” value in [22] is on record as “Complete inhibition”. For the same molecule, the “inhibition of Taq polymerase (TSR8 template)” value in data set [23] is “does not lead to a significant inhibition”. Further, in data set [24], the “phosphorylation of the ERK1/2 protein” value is on record as “dose-dependent phosphorylation”. Moreover, in data set [25], the “cytotoxicity on coincubation with a specific ERK1/2 inhibitor (MAP kinase inhibitor)” value is given as “pronounced synergism”. Besides, the “effect of the combination on tumor cell growth” value in [25] (30% of IC50 of substance (Ic′) with 30% of IC50 of the specific ERK1/2 inhibitor, HCT8 WT) is given as “inhibition of growth”. Also, in data set [26], the “cytotoxicity for the non-tumor cell lines compared with tumor cell lines” value is “considerably less”. Besides, the “cross-resistance to the indicated cytostatics” value in data set [26] (resistant subclones vs native cell lines, SRB assay) was “no cross-resistance”.
